From patent US10227324B2 (Shanghai Haiyan Pharmaceutical Technology Co., Ltd., priority 2014, dated 2019) come the findings set out here.

Data set [1] in a line: Metabolism stability assay in liver microsomes. Format: in vitro ADME, mouse. The following applies: liver microsomal metabolism in mice. As for the experimental part: Buffer A: 1 L solution of 100 mM potassium dihydrogen phosphate containing 1 mM EDTA (Sigma, V900157-100G) was prepared. Buffer B: 1 L solution of 100 mM dipotassium hydrogen phosphate containing 1 mM EDTA was prepared. Buffer C: 700 mL of buffer B was taken out and titrated with buffer A to pH 7.4.
2.1 10 μl of 10 mM compound to be tested and 10 μl of 10 mM ketanserin were taken out and 190 μl of pure acetonitrile was added to each of them to prepare 500 μM compound to be tested and ketanserin, respectively.
2.2 20 μl (20 mg/mL) of liver microsomes (XENOTECH, H0610) stock solution was added to 513.4 μl of buffer C on wet ice. 0.75 mg/mL liver microsomal solution was obtained.
2.3 1.5 μl of each of the above-mentioned compound to be tested and ketanserin solution was added to 498.5 μl of liver microsomal solution (0.7 5 mg/mL) respectively on wet ice. 1.5 μM mixed solution of compound to be tested and 1.5 μM mixed solution of ketanserin were obtained.
2.4 At the time points 0, 5, 15, 30, 45, and 60 min, 30 μl of the mixed solution of compound to be tested and 30 μl of the mixed solution of ketanserin were dispensed into the reaction plate on wet ice, respectively.
2.5 5 mg reduced coenzyme II (Roche, 10621706001) was weighed and dissolved in 1 mL of buffer C. 6 mM reduced coenzyme II solution was obtained. The reduced coenzyme II solution was dispensed into the reaction plate.
2.6 Imipramine was dissolved to give a 10 mM solution. 10 μl imipramine solution was added to 100 mL of blank acetonitrile to generate the internal reference.
2.7 At 0 min, 135 μL of iced acetonitrile (Merck, UN 1648) containing the internal reference was added to each well and then 15 μL of buffer C was added.
2.8 The reaction plate was placed into a 37° C. water bath incubator for 5 min. In the reaction plate, 15 μL of reduced coenzyme II solution was added to each well to initiate the reaction, and the time keeping was started. At the time points of 5, 15, 30, 45, and 60 min, 135 μL of iced acetonitrile containing the internal reference was added to each well to terminate the reaction.
2.9 The reaction plate was sealed with an aluminum film, placed on a vibration mixer and shaken at 500 rpm for 5 min. The plate was then centrifuged in a centrifuge at 3750 rp for 15 min.
2.10 The sample was diluted with pure water in accordance with the ratio of 1:1 and detected by LC/MS.
Half-life: 0.693/K (the slope by plotting based on the incubation time and logarithm of the concentration value)
Clearance ratio: (0.693/half-life)*(1/protein concentration (0.5 mg/mL))*(proportional factor)
Wherein, the K value and the proportional factor were calculated by those skilled in the art according to the methods described in the prior art and contained in the instructions of the liver microsome product.

The next data set relates to NIH3T3 cells. Kind of data set: Cytotoxicity by MTT assay, NIH3T3. Format: cell-based. The settings on record: Mus musculus, NIH3T3, 72 h, cytotoxicity class, read-out: NIH3T3 cell (IC50/nM).
Data set [2] deals with T1, PI3K-β kinase (p110β/p85α) (Homo sapiens, UniProt P42338).
T1 construct: purchased Millipore 14-603
T1 sequence (P42338 whole entry): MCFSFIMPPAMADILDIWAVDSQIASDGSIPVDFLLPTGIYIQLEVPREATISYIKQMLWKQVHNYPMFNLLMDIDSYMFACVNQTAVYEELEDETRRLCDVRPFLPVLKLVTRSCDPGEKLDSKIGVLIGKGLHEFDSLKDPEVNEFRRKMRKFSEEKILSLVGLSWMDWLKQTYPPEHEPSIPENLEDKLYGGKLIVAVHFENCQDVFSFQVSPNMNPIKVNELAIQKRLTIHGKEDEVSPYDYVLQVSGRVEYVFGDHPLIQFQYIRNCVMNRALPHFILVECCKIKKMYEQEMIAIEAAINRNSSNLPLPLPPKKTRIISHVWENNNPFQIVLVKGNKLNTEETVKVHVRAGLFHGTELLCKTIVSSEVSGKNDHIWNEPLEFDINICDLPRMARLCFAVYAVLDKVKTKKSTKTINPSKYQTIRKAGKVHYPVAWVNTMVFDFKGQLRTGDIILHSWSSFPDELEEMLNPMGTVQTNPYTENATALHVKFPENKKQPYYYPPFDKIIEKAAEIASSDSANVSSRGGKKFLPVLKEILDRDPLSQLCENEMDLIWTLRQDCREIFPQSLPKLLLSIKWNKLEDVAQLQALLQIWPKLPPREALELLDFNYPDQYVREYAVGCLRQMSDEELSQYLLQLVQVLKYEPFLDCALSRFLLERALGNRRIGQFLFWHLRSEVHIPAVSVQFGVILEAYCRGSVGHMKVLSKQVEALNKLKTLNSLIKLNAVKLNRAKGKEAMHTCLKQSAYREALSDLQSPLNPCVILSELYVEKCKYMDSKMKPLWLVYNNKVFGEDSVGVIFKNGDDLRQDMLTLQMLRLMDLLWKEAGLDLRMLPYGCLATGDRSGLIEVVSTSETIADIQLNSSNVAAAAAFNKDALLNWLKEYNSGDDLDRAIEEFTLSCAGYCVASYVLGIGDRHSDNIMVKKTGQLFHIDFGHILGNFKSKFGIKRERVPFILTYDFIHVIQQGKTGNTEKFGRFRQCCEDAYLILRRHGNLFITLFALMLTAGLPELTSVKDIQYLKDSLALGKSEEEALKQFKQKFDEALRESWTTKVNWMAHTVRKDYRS
T1 sequence (P27986 whole entry partner): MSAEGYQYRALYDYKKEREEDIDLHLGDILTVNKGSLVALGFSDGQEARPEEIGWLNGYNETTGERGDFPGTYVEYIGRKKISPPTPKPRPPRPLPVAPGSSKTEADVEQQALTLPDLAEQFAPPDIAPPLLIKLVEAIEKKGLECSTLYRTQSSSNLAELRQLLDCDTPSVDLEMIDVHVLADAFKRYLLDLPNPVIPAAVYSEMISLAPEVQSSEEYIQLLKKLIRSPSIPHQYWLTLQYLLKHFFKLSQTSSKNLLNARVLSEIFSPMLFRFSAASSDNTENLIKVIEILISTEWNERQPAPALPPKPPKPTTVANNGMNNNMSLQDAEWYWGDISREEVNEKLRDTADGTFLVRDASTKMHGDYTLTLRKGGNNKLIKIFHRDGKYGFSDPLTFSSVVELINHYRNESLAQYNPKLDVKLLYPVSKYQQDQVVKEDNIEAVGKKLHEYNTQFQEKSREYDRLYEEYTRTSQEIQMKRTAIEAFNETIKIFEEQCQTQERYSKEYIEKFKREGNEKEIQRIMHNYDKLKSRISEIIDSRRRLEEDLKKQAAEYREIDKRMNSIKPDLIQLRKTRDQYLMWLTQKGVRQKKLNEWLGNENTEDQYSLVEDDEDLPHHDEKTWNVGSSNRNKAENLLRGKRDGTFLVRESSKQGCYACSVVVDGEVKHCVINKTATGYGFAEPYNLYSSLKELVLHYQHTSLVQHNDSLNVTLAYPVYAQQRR
Kind of data set: Determination of PI3K kinase activity (ADP Transcreener, fluorescence polarization). The class given is biochemical. The following applies: Table 1; ATP 10 μM; read-out: PI3K-β/nM (IC50 of inhibitory activity against PI3K kinase). (In general: In fluorescence polarisation assays a small probe gives low polarisation when free and higher when bound to something large.)

Data set [3] addresses T2, PI3K-δ kinase (p110δ/p85α) (Homo sapiens, UniProt O00329).
T2 construct: purchased Millipore 14-604M
The description is as above. Format: biochemical. The settings on record: Table 1; ATP 10 μM; read-out: PI3K-δ/nM (IC50 of inhibitory activity against PI3K kinase).

The target in another data set is T3, PI3K-γ kinase (p110γ) (Homo sapiens, UniProt P48736).
T3 construct: purchased Invitrogen PV4786
T3 sequence (P48736 whole entry): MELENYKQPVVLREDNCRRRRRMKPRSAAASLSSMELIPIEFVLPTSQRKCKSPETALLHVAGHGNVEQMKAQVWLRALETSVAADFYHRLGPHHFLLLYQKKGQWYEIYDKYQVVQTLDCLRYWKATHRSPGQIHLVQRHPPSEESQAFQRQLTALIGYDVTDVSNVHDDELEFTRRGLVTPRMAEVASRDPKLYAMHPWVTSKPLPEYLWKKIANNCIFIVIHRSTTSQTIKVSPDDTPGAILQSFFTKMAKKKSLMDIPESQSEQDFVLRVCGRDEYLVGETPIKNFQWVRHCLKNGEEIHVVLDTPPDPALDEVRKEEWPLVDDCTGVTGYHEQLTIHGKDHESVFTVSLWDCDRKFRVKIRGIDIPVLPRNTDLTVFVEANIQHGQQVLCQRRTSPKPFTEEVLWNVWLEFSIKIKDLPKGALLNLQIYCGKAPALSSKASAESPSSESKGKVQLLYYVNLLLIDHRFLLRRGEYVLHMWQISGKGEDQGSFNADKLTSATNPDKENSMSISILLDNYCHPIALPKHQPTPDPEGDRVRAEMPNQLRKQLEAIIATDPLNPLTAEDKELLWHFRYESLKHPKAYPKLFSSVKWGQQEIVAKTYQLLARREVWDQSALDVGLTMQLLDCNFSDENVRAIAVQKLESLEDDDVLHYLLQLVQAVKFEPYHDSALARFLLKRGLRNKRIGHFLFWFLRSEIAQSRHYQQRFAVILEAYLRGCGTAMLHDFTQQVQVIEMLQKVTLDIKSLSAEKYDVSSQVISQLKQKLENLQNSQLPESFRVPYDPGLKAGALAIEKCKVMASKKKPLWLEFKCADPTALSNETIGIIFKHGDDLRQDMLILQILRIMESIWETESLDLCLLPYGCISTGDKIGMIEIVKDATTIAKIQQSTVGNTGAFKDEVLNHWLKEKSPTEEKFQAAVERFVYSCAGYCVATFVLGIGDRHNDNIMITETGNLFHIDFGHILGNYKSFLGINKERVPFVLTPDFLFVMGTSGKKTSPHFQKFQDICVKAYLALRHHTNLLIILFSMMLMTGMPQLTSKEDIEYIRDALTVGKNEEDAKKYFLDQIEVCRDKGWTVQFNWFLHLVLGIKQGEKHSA
The data set is described as above. The following applies: Table 1; ATP 10 μM; read-out: PI3K-γ/nM (IC50 of inhibitory activity against PI3K kinase). Format: biochemical. The method, boiled down: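 Each 25 μL reaction held PI3K enzyme (p110α/p85α 3 ng, p110β/p85α 60 ng, p110δ/p85α 90 ng, or p110γ 100 ng), 10 μM ATP, 30 μM PIP2:PS and 2% DMSO, incubated 1 h at 25 °C. Compounds were tested in duplicate across a 3-fold series, 0.00046–1 μM as prepared. ADP was detected by Transcreener fluorescence polarization, quantified against an ADP/ATP standard curve, and IC50 fitted.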

Data set [4] concerns the target T4, PI3K-α kinase (p110α/p85α) (Homo sapiens, UniProt P42336).
T4 construct: purchased Invitrogen PV4788
The data set is described as above. The following applies: Table 1; ATP 10 μM; read-out: PI3K-α/nM (IC50 of inhibitory activity against PI3K kinase). The class given is biochemical.

T2 sequence (O00329 whole entry): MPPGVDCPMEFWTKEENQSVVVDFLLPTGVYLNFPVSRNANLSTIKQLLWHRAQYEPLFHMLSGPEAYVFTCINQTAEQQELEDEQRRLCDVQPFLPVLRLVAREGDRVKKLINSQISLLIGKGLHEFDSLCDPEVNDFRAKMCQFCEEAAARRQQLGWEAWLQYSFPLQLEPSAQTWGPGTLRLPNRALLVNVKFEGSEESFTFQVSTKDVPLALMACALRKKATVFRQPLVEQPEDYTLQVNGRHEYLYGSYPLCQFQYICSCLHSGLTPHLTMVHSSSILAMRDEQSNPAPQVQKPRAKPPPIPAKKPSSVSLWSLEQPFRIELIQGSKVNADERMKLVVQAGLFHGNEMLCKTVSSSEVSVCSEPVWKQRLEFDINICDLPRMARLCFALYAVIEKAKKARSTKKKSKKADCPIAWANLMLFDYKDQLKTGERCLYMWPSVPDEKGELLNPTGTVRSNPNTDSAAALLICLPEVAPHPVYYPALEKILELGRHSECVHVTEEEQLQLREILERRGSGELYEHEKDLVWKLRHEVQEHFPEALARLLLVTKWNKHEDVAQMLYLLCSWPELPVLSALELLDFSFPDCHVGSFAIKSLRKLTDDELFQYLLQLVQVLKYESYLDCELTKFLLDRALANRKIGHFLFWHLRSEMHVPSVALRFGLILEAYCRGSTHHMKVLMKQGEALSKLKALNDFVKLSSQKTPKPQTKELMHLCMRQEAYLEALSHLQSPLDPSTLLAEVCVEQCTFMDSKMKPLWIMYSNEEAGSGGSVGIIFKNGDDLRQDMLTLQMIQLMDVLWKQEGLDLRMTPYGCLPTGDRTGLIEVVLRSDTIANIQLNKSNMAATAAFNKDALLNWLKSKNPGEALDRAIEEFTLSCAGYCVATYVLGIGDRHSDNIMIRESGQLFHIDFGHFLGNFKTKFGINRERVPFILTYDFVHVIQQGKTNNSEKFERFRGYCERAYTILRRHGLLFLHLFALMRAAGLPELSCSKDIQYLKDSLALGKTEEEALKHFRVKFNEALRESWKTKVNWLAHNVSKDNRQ
T2 sequence (P27986 whole entry partner): as the sequence (P27986 whole entry partner) above
T4 sequence (P42336 whole entry): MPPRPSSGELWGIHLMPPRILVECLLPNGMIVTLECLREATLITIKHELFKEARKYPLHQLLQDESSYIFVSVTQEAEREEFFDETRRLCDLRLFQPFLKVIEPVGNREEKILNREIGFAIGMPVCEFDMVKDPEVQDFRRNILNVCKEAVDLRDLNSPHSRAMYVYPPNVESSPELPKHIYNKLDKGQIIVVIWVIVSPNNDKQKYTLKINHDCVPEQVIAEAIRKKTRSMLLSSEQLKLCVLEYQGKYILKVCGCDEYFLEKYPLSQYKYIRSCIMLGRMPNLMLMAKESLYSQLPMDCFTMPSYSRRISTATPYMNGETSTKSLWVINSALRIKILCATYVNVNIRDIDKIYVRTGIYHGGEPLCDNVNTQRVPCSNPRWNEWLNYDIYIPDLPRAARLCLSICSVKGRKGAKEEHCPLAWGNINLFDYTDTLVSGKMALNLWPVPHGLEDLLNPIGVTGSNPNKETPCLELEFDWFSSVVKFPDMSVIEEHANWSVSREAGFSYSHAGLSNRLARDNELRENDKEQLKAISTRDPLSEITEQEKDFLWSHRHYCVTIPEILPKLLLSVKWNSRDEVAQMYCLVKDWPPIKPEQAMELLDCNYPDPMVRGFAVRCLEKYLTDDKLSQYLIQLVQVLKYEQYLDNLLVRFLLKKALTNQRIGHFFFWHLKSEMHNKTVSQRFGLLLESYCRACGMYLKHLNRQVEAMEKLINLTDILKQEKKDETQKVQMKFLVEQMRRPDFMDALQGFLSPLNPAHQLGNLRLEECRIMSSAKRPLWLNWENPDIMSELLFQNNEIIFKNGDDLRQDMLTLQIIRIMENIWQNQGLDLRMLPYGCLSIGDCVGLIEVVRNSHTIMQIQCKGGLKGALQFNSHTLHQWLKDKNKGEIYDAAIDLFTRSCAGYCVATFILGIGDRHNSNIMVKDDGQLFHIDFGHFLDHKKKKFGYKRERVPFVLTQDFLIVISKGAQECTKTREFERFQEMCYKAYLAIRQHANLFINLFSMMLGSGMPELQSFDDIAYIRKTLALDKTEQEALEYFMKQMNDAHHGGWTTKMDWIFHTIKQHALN
T4 sequence (P27986 whole entry partner): as the sequence (P27986 whole entry partner) above

Regarding `CC(C)(c1cc(-c2cnc(N)cc2C(F)(F)F)nc(N2CCOCC2)n1)S(=O)(=O)c1ccccc1` [Compound S-21], the “Clearance ratio (mL/min/kg) mouse” value in data set [1] is given as 6337.31 mL/min/kg. The IC50 was 1000 to 3000 nM in the data set on NIH3T3 cells, 832 nM in data set [2], 214 nM in data set [3] and 843 nM at PI3K-γ kinase (p110γ).
On to `Nc1cc(C(F)(F)F)c(-c2cc(C3(S(=O)(=O)c4ccc(F)cc4)CC3)nc(N3CCOCC3)n2)cn1` [Compound S-59], for which, in data set [1], the “Clearance ratio (mL/min/kg) mouse” value was determined as 7163.43 mL/min/kg. Further, the IC50 is 1000 to 3000 nM in the data set with NIH3T3 cells; 721 nM in data set [2]; 235 nM in data set [3]; 37 nM in data set [4]; 813 nM on PI3K-γ kinase (p110γ).
